Patent US11602534B2, “Pyrimidine derivative kinase inhibitors” (HEFEI INSTITUTES OF PHYSICAL SCIENCE, CHINESE ACADEMY OF …, priority 2017, dated 2023)
Where a name gives a salt, the structure may show the parent alone.

Assays:
[1] = system: TEL-PDGFRα-BaF3; assay: Proliferation of TEL-PDGFRα-BaF3 cells, CCK8 cell viability assay; format: cell-based; settings: Mus musculus, 72 hours, stably expressing PDGFRα kinase
From the text: (§1) In this example the following cells were used: […] (purchased from ATCC), mouse P210-BaF3 (stably expressing BCR-ABL mutant activated kinase), mouse P210/T315I-BaF3 (stably expressing BCR-ABL/T315I mutant activated kinase), mouse FLT3-ITD-BaF3 (stably expressing FLT3/ITD mutant activated kinase), mouse TEL-FLT3-BaF3 (stably expressing FLT3 kinase), mouse TEL-cKIT-BaF3 (stably expressing cKIT kinase), mouse BaF3-tel/T670I-cKit (stably expressing cKIT/T670I mutant activated kinase), mouse Tel-VEGFR2-BaF3 (stably expressing VEGFR2 kinase), mouse Tel-PDGFRα-BaF3 (stably expressing PDGFRα kinase), mouse Tel-PDGFRβ-BaF3 (stably expressing PDGFRβ kinase), mouse Tel-RET-BaF3 (stably expressing RET kinase). The above cell lines were all constructed by our laboratory according to the following method: the kinase region sequences of human P210, P210/T315I, FLT3/ITD, FLT3, cKIT, cKIT/T670I, VEGFR2, PDGFRα, PDGFRβ, RET were respectively amplified by PCR, and inserted into MSCV-Puro vectors having N-terminal TEL or TPR fragments (Clontech). The vectors were stably transfected into mouse BaF3 cells by means of retrovirus, and the growth factor IL-3 were removed, eventually obtaining cell lines that depend on transferred protein P210, P210/T315I, FLT3/ITD, FLT3, cKIT, cKIT/T670I, VEGFR2, PDGFRα, PDGFRβ, or RET.
(§2) GI50 (unit: μM) was calculated by quantifying the number of living cells based on quantitative measurement of reductive dehydrogenase in living cells with CCK8 cell viability assay kit (Bestbio, China).

[2] = system: TEL-VEGFR2-BaF3; assay: Proliferation of TEL-VEGFR2-BaF3 cells, CCK8 cell viability assay; format: cell-based; settings: Mus musculus, 72 hours, stably expressing VEGFR2 kinase
From the text: as §1, §2

[3] = system: Tel-cKit-BaF3; assay: Proliferation of Tel-cKit-BaF3 cells, CCK8 cell viability assay; format: cell-based, mouse; settings: Mus musculus; 72 hours, CCK8; stably expressing cKIT kinase
From the text: as §1, §2

[4] = system: Tel-cKit/T670I-BaF3; assay: Proliferation of Tel-cKit/T670I-BaF3 cells, CCK8 cell viability assay; format: cell-based; settings: Mus musculus, 72 hours, stably expressing cKIT/T670I
From the text: as §1, §2

[5] = system: Tel-FLT3-BaF3; assay: Proliferation of Tel-FLT3-BaF3 cells, CCK8 cell viability assay; format: cell-based; settings: Mus musculus, 72 hours, stably expressing FLT3 kinase
From the text: as §1, §2

[6] = system: BaF3; assay: Proliferation of BaF3 cells, CCK8 cell viability assay; format: cell-based; settings: Mus musculus, 72 hours
From the text: as §1, §2

[7] = system: TEL-PDGFRβ-BaF3; assay: Proliferation of TEL-PDGFRβ-BaF3 cells, CCK8 cell viability assay; format: cell-based; settings: Mus musculus, 72 hours, stably expressing PDGFRβ kinase
From the text: as §1, §2

[8] = system: Tel-RET-BaF3; assay: Proliferation of Tel-RET-BaF3 cells, CCK8 cell viability assay; format: cell-based; settings: Mus musculus, 72 hours, stably expressing RET kinase
From the text: as §1, §2

[9] = system: FLT3-ITD-BaF3; assay: Proliferation of FLT3-ITD-BaF3 cells, CCK8 cell viability assay; format: cell-based; settings: Mus musculus, 72 hours, stably expressing FLT3/ITD
From the text: as §1, §2

Compound | GI50 [1] [nM] | GI50 [2] [nM] | GI50 [3] [nM] | GI50 [4] [nM] | GI50 [5] [nM] | GI50 [6] [nM] | GI50 [7] [nM] | GI50 [8] [nM] | GI50 [9] [nM]
Cc1ccc(NC(=O)Nc2ccc(Oc3cc(N[C@H](C)CNC(=O)OC(C)(C)C)ncn3)cc2)cc1C(F)(F)F [Example 112, (R)-(2-((6-(4-(3-(4-methyl-3-(trifluoromethyl)phenyl)ureido)phenoxy)pyrimidin-4-yl)amino)propyl)aminotert-butyl Formate] | 23 | 390 | 1070 | 886 | 599 | 4120 | 51 | 3820 | 58
Cc1ccc(NC(=O)Nc2ccc(Oc3cc(N4CCNC[C@H]4C)ncn3)cc2)cc1C(F)(F)F [Example 105, (R)-1-(4-methyl-3-(trifluoromethyl)phenyl)-3-(4-((6-(2-methylpiperazin-1-yl)pyrimidin-4-yl)oxy)phenyl)urea] | 14 | 323 | 990 | 2160 | 200 | 9670 | 195 | 2750 | 86
CCN1CCN(Cc2ccc(NC(=O)Nc3ccc(Oc4cc(NCCN)ncn4)cc3)cc2C(F)(F)F)CC1 [Example 109, 1-{4-[6-(2-amino-ethylamino)-pyrimidin-4-yloxy]-phenyl}-3-[4-(4-ethyl-piperazin-1-ylmethyl)-3-trifluoromethyl-phenyl]-urea] | 13 | 145 | 999 | 3360 | 11 | 3540 | 392 | 460 | 7
CC[C@@H]1CN(C(=O)OC(C)(C)C)CCN1c1cc(Oc2ccc(NC(=O)Nc3ccc(C)c(C(F)(F)F)c3)cc2)ncn1 [Example 111, (R)-3-ethyl-4-(6-(4-(3-(4-methyl-3-(trifluoromethyl)phenyl)ureido)phenoxy)pyrimidin-4-yl)piperazin-1-tert-butyl formate] | 190 | 1740 | 6050 | 8600 | 6160 | > 10000 | 690 | > 10000 | 141
Cc1ccc(NC(=O)Nc2ccc(Oc3cc(N[C@H](C)CN)ncn3)cc2)cc1C(F)(F)F [Example 113, (R)-1-(4-((6-((1-aminoprop-2-yl)amino)pyrimidin-4-yl)oxy)phenyl)-3-(4-methyl-3-(trifluoromethyl)phenyl)urea] | 86 | 1260 | 3220 | 8540 | 638 | > 10000 | 170 | > 10000 | 259

Other lines, results leading:

GI50 [1] [nM] | GI50 [2] [nM] | GI50 [3] [nM] | GI50 [4] [nM] | GI50 [5] [nM] | GI50 [6] [nM] | GI50 [7] [nM] | GI50 [8] [nM] | GI50 [9] [nM] | Compound
14 | 202 | 340 | 990 | 66 | > 10000 | 277 | 4600 | 17 | Cc1ccc(NC(=O)Nc2ccc(Oc3cc(NC4CCN(C(=O)OC(C)(C)C)CC4)ncn3)cc2)cc1C(F)(F)F [Example 99, 4-(6-{4-[3-(4-methyl-3-trifluoromethyl-phenyl)-ureido]-phenoxy}-pyrimidin-4-ylamino)-piperidin-1-tert-butyl Formate]
63 | 1660 | 1520 | 8080 | 600 | 9010 | 342 | 5820 | 30 | Cc1ccc(NC(=O)Nc2ccc(Oc3cc(N4CCN(C(=O)OC(C)(C)C)C[C@H]4C)ncn3)cc2)cc1C(F)(F)F [Example 100, (R)-3-methyl-4-(6-(4-(3-(4-methyl-3-(trifluoromethyl)phenyl)ureido)phenoxy)pyrimidin-4-yl)piperazin-1-tert-butyl Formate]
